From patent US11214803B2, “Modulators of YAP1 expression” (Ionis Pharmaceuticals, Inc., priority 2019, dated 2022)
Strand notation (5' to 3'): a small letter for the sugar, then the base; units joined by * are phosphorothioate-linked, units joined directly phosphodiester-linked; [ ] holds rarer units or linkages, { } end groups; capitals alone tell only the bases. k = constrained ethyl (cEt); [5mC] = 5-methylcytosine; d = 2'-deoxy (DNA)

Test system: Yap1 mRNA
Assay: Antisense inhibition of human Yap1 in A-431 cells by cEt gapmers, single dose (Example 3, RTS36584)
Type: cell-based
Summary of the method: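 A-431 cells were treated by free uptake with 2,000 nM modified oligonucleotide (3-10-3 cEt gapmers, full phosphorothioate, 5-methylcytosines) for about 48 hours. Yap1 mRNA was quantified by real-time RT-PCR, normalized to RiboGreen total RNA, and expressed as % of untreated control; asterisked values mark oligonucleotides targeting the amplicon region.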

[1] = Table 35, Yap1 mRNA as percent of untreated control, 3-10-3 cEt gapmers targeting SEQ ID NO: 1 and 2, single dose
[2] = Table 12, A-431 cells, 5,000 cells per well, free uptake, 2,000 nM modified oligonucleotide, approx. 48 hours, RTS36584, normalized to RIBOGREEN, Yap1 mRNA relative to untreated control cells
[3] = Table 27, Yap1 mRNA by 3-10-3 cEt gapmers targeting SEQ ID NO.: 1, and 2, percent of untreated control
[4] = Table 34, Yap1 mRNA as percent of untreated control, 3-10-3 cEt gapmers targeting SEQ ID NO: 1 and 2, single dose
[5] = Table 28, Yap1 mRNA as percent of untreated control, 3-10-3 cEt gapmers targeting SEQ ID NO.: 1, and 2

## 1074933 (antisense kA*kG*kG*dA*dG*dA*d[5mC]*dT*dA*dT*dA*d[5mC]*dA*kA*k[5mC]*kA) [compound 1074933]
[1]
  YAP1 (% UTC): 72 % UTC

## 958449 (antisense k[5mC]*k[5mC]*kG*dG*dA*d[5mC]*dG*dG*d[5mC]*dG*dG*dG*d[5mC]*k[5mC]*k[5mC]*kT) [Compound 958449]
[2]
  YAP1 (% UTC): 84 % UTC

## 958357 (antisense k[5mC]*kG*kG*d[5mC]*dT*dT*dG*dA*dA*dG*dA*dA*dG*kG*kA*kG) [Compound 958357]
Table 8, A-431 cells, 5,000 cells per well, free uptake, 2,000 nM, approximately 48 hours, RTS36584, normalized to RIBOGREEN, Yap1 mRNA relative to untreated control cells
  YAP1 (% UTC): 12 % UTC

## 1074637 (antisense kA*kA*kT*d[5mC]*dT*dA*dT*d[5mC]*dT*dT*d[5mC]*d[5mC]*d[5mC]*kA*kA*kG) [compound 1074637]
[3]
  YAP1 (% UTC): 36 % UTC

## 1075852 (kG*kA*kT*dA*dA*dG*d[5mC]*d[5mC]*dG*dA*dA*dT*dA*kT*kG*kG; antisense) [compound 1075852]
Table 26, Yap1 mRNA by 3-10-3 cEt gapmers targeting SEQ ID NO.: 1, and 2, percent of untreated control
  YAP1 (% UTC): 58 % UTC

## 1075317 (antisense kG*kT*kA*dT*dT*d[5mC]*dG*d[5mC]*d[5mC]*dT*d[5mC]*d[5mC]*dT*kG*k[5mC]*kA) [compound 1075317]
[1]
  YAP1 (% UTC): 27 % UTC

## 1075445 (antisense kT*kA*kT*dA*dA*dA*dT*d[5mC]*d[5mC]*dT*d[5mC]*dA*dT*kG*kT*kG) [compound 1075445]
[1]
  YAP1 (% UTC): 84 % UTC

## 958456 (antisense kG*kG*k[5mC]*d[5mC]*dA*dG*dA*dG*dA*d[5mC]*dT*dA*d[5mC]*kT*k[5mC]*k[5mC]) [Compound 958456]
Table 9, A-431 cells, 5,000 cells per well, free uptake, 2,000 nM, approximately 48 hours, RTS36584, normalized to RIBOGREEN, Yap1 mRNA relative to untreated control cells
  YAP1 (% UTC): 90 % UTC

## 1074900 (antisense kA*kT*kT*dA*dA*d[5mC]*dT*dT*dT*dT*dG*dG*dG*k[5mC]*kA*kA) [compound 1074900]
[4]
  YAP1 (% UTC): 40 % UTC

## 1075668 (antisense kA*kA*kT*dT*dA*dT*dT*dG*dG*dT*dG*dA*d[5mC]*kA*k[5mC]*kT) [compound 1075668]
[4]
  YAP1 (% UTC): 80 % UTC

## 958478 (antisense kG*kG*kA*dA*dA*dT*dT*dT*d[5mC]*d[5mC]*dG*dG*dT*kG*k[5mC]*kA) [Compound 958478]
Table 11, A-431 cells, 5,000 cells per well, free uptake, 2,000 nM oligonucleotide, approx. 48 hours, primer probe set RTS36584, Yap1 mRNA normalized to RIBOGREEN, percent of untreated control
  YAP1 (% UTC): 14 % UTC

## 1075534 (kA*k[5mC]*k[5mC]*d[5mC]*dA*dA*dG*dG*dA*d[5mC]*dA*dG*d[5mC]*kA*k[5mC]*kA; antisense) [compound 1075534]
[5]
  YAP1 (% UTC): 53 % UTC

## 1074223 (antisense kG*kA*kA*dA*d[5mC]*dA*dG*d[5mC]*dT*d[5mC]*d[5mC]*d[5mC]*dA*kA*k[5mC]*kT) [compound 1074223]
Table 29, Yap1 mRNA as percent of untreated control, 3-10-3 cEt gapmers targeting SEQ ID NO.: 1, and 2
  YAP1 (% UTC): 48 % UTC

## 1074869 (kA*kG*kT*dA*d[5mC]*d[5mC]*dT*dA*dA*d[5mC]*dA*dT*dA*kT*kG*kA; antisense) [compound 1074869]
[1]
  YAP1 (% UTC): 31 % UTC

## 1075284 (antisense k[5mC]*kT*kT*dT*dT*d[5mC]*dG*dA*dA*dT*dA*dT*dA*kG*kA*kA) [compound 1075284]
[4]
  YAP1 (% UTC): 76 % UTC

## 1074478 (k[5mC]*k[5mC]*kT*dA*dG*dG*dT*dT*d[5mC]*d[5mC]*dG*dA*d[5mC]*kA*kA*kA; antisense) [compound 1074478]
[5]
  YAP1 (% UTC): 69 % UTC

## 958459 (antisense k[5mC]*kT*kG*dA*dA*dG*d[5mC]*d[5mC]*dG*dA*dG*dT*dT*k[5mC]*kA*kT) [Compound 958459]
[2]
  YAP1 (% UTC): 28 % UTC

## 1076013 (kG*kT*kT*dT*dA*dA*dT*dA*d[5mC]*d[5mC]*dT*d[5mC]*dT*kG*kA*k[5mC]; antisense) [compound 1076013]
[3]
  YAP1 (% UTC): 76 % UTC

## 1076557 (kA*kA*k[5mC]*dA*dA*dA*dT*dA*d[5mC]*d[5mC]*dA*dG*dG*kT*kT*k[5mC]; antisense) [compound 1076557]
[3]
  YAP1 (% UTC): 111 % UTC

## 1076565 (k[5mC]*kA*kT*dT*dA*dA*dG*dT*d[5mC]*dA*d[5mC]*dA*dG*k[5mC]*kA*kT; antisense) [compound 1076565]
[1]
  YAP1 (% UTC): 74 % UTC

## 958515 (k[5mC]*k[5mC]*k[5mC]*d[5mC]*dA*dA*d[5mC]*d[5mC]*dA*dG*dA*dT*dT*kT*kA*kA; antisense) [Compound 958515]
Table 13, A-431 cells, 5,000 cells per well, free uptake, 2,000 nM modified oligonucleotide, approx. 48 hours, RTS36584, normalized to RIBOGREEN, Yap1 mRNA relative to untreated control cells
  YAP1 (% UTC): 28 % UTC
